Experimental data reported in publication PMC8524809 (Molecular Therapy, 2021).

Assays:
[1] = test system: SARS-CoV-2 S pseudovirion beta variant; format: cell-based; settings: similar to the WT
[2] = test system: SARS-CoV-2 S pseudovirion alpha variant; format: cell-based; settings: similar to the WT

CC(C)(O)c1ccccc1CC[C@@H](SCC1(CC(=O)O)CC1)c1cccc(/C=C/c2ccc3ccc(Cl)cc3n2)c1 [montelukast]
Inhibition of pseudovirus entry [1]: increase in a dose-dependent manner
Inhibition of pseudovirus entry [2]: increase in a dose-dependent manner
